Measurements taken from publication PMC8836258, “Structural Basis of Redox-Sensing Transcriptional Repressor Rex with Cofactor NAD^+ and Operator DNA” (International Journal of Molecular Sciences, 2022).

Biological target: T1, Tma Rex (Thermotoga maritima, UniProt Q9WY16)
T1 construct: gene rex1; Full-length, residues 1-208 (5-207 modelled); homodimer; P-loop residues 89-94 GAGNIG; crystallised with 22-bp TM0201 operator DNA
T1 sequence (Q9WY16 1-208): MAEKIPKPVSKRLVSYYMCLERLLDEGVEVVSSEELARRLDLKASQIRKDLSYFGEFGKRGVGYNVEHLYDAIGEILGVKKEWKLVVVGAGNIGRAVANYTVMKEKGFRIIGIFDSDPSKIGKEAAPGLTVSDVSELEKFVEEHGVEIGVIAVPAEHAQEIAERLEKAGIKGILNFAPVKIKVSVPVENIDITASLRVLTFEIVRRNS
Test: X-ray crystallography, co-crystal structure at […] A
Format: binding
Details: ternary complex with 22-bp TM0201 operator DNA; 1 mM NAD+ in co-crystallization; pH 6.5, 296 K; one NAD+ per monomer, C-terminal Rossmann domain near dimer interface

Structure (SMILES): NC(=O)c1ccc[n+]([C@@H]2O[C@H](COP(=O)(O)OP(=O)(O)OC[C@H]3O[C@@H](n4cnc5c(N)ncnc54)[C@H](O)[C@@H]3O)[C@@H](O)[C@H]2O)c1 [NAD^+]
- X-ray crystallography, co-crystal structure at 2.40 A: a dimeric Rex protein bound to one molecule of NAD^+ per monomer
